What is called IC50 is the concentration that gives 50% inhibition. One may read the pIC50 as the IC50 on a negative log10 scale, so that one unit is a factor of ten. What is called inhibition is the drop in the measured response relative to a control, in per cent. The term EC50 denotes the concentration needed to bring the measured effect to its halfway point.

The structures appear in SMILES notation.

The nature of experiment [1]: Inhibition of recombinant Plasmodium falciparum PKG using FAM-PKA peptide as fluorescent substrate preincubated for 15 mins followed by substrate addition measured after 1 hr by fluorescence polarization based IMAP assay. Background: In fluorescence polarisation assays a small probe gives low polarisation when free and higher when bound to something large.
The species named for experiment [2] is Homo sapiens. The experiment in a line: Inhibition of human PKG using FAM-IP3R peptide as fluorescent substrate at 10 uM preincubated for 15 mins followed by substrate addition measured after 1 hr by fluorescence polarization based IMAP assay relative to control. As to conditions: time 75.0 min.
The subject of experiment [3] is Plasmodium falciparum. The experiment in a line: Antimalarial activity against drug-sensitive Plasmodium falciparum 3D7 infected in human erythrocytes assessed as reduction in parasitemia incubated for 72 hrs by SYBR green I and Mitotracker deep red dye based flow cytometric analysis. It is filed as functional, organism-based. (In general: Flow cytometry measures light scatter and fluorescence of single cells or particles in a stream.)

Experiment [4] concerns Plasmodium falciparum. The experiment is described as follows: Antimalarial activity against Plasmodium falciparum expressing PKG T618Q mutant infected in human erythrocytes assessed as reduction in parasitemia incubated for 72 hrs by SYBR green I and Mitotracker deep red dye based flow cytometric analysis. To be noted: Plasmodium falciparum, 72 h. Format: functional, organism-based.

The test system of experiment [5] is Plasmodium berghei. The experiment in a line: Antimalarial activity against Plasmodium berghei sporozoites expressing Luciferase infected in human HepG2 cells assessed as reduction in parasite growth incubated for 48 hrs by ONE-Glo luciferase assay. It is filed as functional, organism-based.
Setting [6] is: Plasmodium falciparum, 3D7, 72 h.
The mark [7] stands for this setting: Plasmodium berghei, HepG2, 48 h.

On to `CCc1c(C2CCN(C)CC2)[nH]c(-c2ccc(F)cc2)c1-c1ccncc1.Cl.Cl`, for which, in experiment [1], the IC50 stood at 1610 nM and the pIC50 was determined as 5.79. Also, in experiment [2], the inhibition worked out at 12%.
In the case of `C=Cc1c(C2CCN(C)CC2)[nH]c(-c2ccc(F)cc2)c1-c1ccncc1.CC(=O)O`, the IC50 in experiment [1] was determined as 246 nM. Also, the pIC50 in experiment [1] worked out at 6.61. In addition, the EC50 was 1080 nM in experiment [3] (setting [6]), 1170 nM in experiment [4] and 410 nM in experiment [5] (setting [7]). The inhibition in experiment [2] was -1%.
As to `CN1CCC(c2[nH]c(-c3ccc(F)cc3)c(-c3ccncc3)c2Br)CC1.Cl.Cl`, in experiment [1], the IC50 is 107 nM and the negative logarithm of the IC50 (pIC50) was determined as 6.97. Also, in experiment [3] (setting [6]), the EC50 stood at 1550 nM. Further, the EC50 in experiment [4] is 1140 nM. Further, in experiment [2], the inhibition came to 12%.
Regarding `Cc1cnccc1-c1cc(C2CCN(C)CC2)[nH]c1-c1ccc(F)cc1.Cl.Cl`, the IC50 in experiment [1] came to 208 nM. Moreover, in experiment [1], the pIC50 was 6.68. In addition, the EC50 in experiment [3] (setting [6]) is 1360 nM; in experiment [4], 1130 nM; in experiment [5] (setting [7]) it was 590 nM. For the same compound, the inhibition in experiment [2] stood at 12%.
On to `CC(=O)O.CN1CCC(c2cc(-c3ccnc(C#N)c3)c(-c3ccc(F)cc3)[nH]2)CC1`, for which, in experiment [1], the IC50 is 95 nM. Further, the pIC50 in experiment [1] is 7.02. Also, the EC50 in experiment [3] (setting [6]) is 420 nM; in experiment [4], 3730 nM; in experiment [5] (setting [7]), 2800 nM. Moreover, the inhibition in experiment [2] was found to be 9%.
On to `Cc1cc(-c2cc(C3CCN(C)CC3)[nH]c2-c2ccc(F)cc2)ccn1.Cl.Cl`, for which the IC50 in experiment [1] was 2550 nM. The pIC50 in experiment [1] is 5.59. The EC50 was found to be 2330 nM in experiment [3] (setting [6]), 960 nM in experiment [4] and 3700 nM in experiment [5] (setting [7]). Besides, the inhibition in experiment [2] came out at 9%.
For `CN1CCC(c2cc(-c3ccn4nnnc4c3)c(-c3ccc(F)cc3)[nH]2)CC1.Cl.Cl`, the IC50 in experiment [1] was found to be 11600 nM. Besides, the pIC50 in experiment [1] turned out to be 4.94. The values for the EC50 in experiment [3] (setting [6]), in experiment [4] and in experiment [5] (setting [7]) were 2750 nM, 2270 nM and greater than 20000 nM, respectively. Moreover, the inhibition in experiment [2] was found to be 12%.
Turning to `CN1CCC(c2cc(-c3ccncc3)c(-c3ccc(C(F)(F)F)cc3)[nH]2)CC1.Cl.Cl`, in experiment [1], the IC50 was 329 nM. Moreover, in experiment [1], the negative logarithm of the IC50 (pIC50) was 6.94. The results for the EC50 in experiment [3] (setting [6]), in experiment [4] and in experiment [5] (setting [7]) were 530 nM, 800 nM and 2600 nM, respectively. Also, in experiment [2], the inhibition is -2%.
Consider `CN1CCC(c2cc(-c3ccnc(N)c3)c(-c3ccc(F)cc3)[nH]2)CC1.Cl.Cl`, for which, in experiment [1], the IC50 came out at 352 nM. For the same compound, the pIC50 in experiment [1] is 6.45. Further, the EC50 in experiment [3] (setting [6]) worked out at 50 nM; in experiment [4], 600 nM; in experiment [5] (setting [7]), 590 nM. The inhibition in experiment [2] is -4%.
Consider `CN1CCC(c2[nH]c(-c3ccc(F)cc3)c(-c3ccncc3)c2C#N)CC1.Cl.Cl`, for which the IC50 in experiment [1] turned out to be 11 nM. In addition, the pIC50 in experiment [1] was 7.96. Besides, the figures for the concentration giving a half-maximal response (EC50) in experiment [3] (setting [6]), in experiment [4] and in experiment [5] (setting [7]) were 900 nM, 2450 nM and 540 nM, respectively. Besides, the inhibition in experiment [2] came out at 19%.
For `CN1CCC(c2cc(-c3ccnc(Br)c3)c(-c3ccc(F)cc3)[nH]2)CC1.Cl.Cl`, the IC50 in experiment [1] was 169 nM. In experiment [1], the negative logarithm of the IC50 (pIC50) stood at 6.77. The 50% effective concentration (EC50) amounted to 1720 nM in experiment [3] (setting [6]) and 1930 nM in experiment [4]. The inhibition in experiment [2] is 36%.
With `CN1CCC(c2cc(-c3ccncc3)c(-c3ccc(F)cc3)[nH]2)CC1.Cl`, in experiment [1], the IC50 turned out to be 31 nM. Moreover, the pIC50 in experiment [1] came out at 7.61. Also, the EC50 was determined as 230 nM in experiment [3] (setting [6]), 1020 nM in experiment [4] and 270 nM in experiment [5] (setting [7]). The inhibition in experiment [2] was found to be 6%.
In the case of `CN1CCC(C)(c2cc(-c3ccncc3)c(-c3ccc(F)cc3)[nH]2)CC1.Cl.Cl`, the IC50 in experiment [1] worked out at 50 nM. The pIC50 in experiment [1] was 7.09. Moreover, the EC50 stood at 550 nM in experiment [3] (setting [6]), 1070 nM in experiment [4] and 500 nM in experiment [5] (setting [7]). The inhibition in experiment [2] was 35%.
`C[C@H]1CN(C)CC[C@H]1c1cc(-c2ccncc2)c(-c2ccc(F)cc2)[nH]1.Cl.Cl` (racemic): the IC50 in experiment [1] stood at 10 nM. Also, in experiment [1], the pIC50 came to 7.89. The figures for the EC50 in experiment [3], in experiment [4] and in experiment [5] (setting [7]) were 30 nM, 660 nM and 190 nM, respectively. In addition, the inhibition in experiment [2] worked out at 35%.
Consider `CC(=O)O.CN1CCC(c2[nH]c(-c3ccc(F)cc3)c(-c3ccncc3)c2CO)CC1`, for which, in experiment [1], the IC50 came out at 226 nM and the pIC50 was 6.65. For the same compound, the EC50 in experiment [3] (setting [6]) stood at 4610 nM. In experiment [4], the EC50 worked out at 4190 nM. Besides, the inhibition in experiment [2] is 11%.
As for `COc1ccc(-c2[nH]c(C3CCN(C)CC3)cc2-c2ccncc2)cc1.Cl.Cl`, the IC50 in experiment [1] stood at 30 nM. Further, the pIC50 in experiment [1] was found to be 7.2. For the same compound, the EC50 in experiment [3] (setting [6]) was 230 nM; in experiment [4], 1090 nM; in experiment [5] (setting [7]), 240 nM. Further, the inhibition in experiment [2] stood at 6%.
On to `CC(O)c1cc(-c2cc(C3CCN(C)CC3)[nH]c2-c2ccc(F)cc2)ccn1.Cl.Cl` (stereo not given), for which, in experiment [1], the IC50 worked out at 10500 nM. Besides, the pIC50 in experiment [1] amounted to 4.98. The EC50 was 3350 nM in experiment [3] (setting [6]), 8320 nM in experiment [4] and greater than 10000 nM in experiment [5] (setting [7]). In experiment [2], the inhibition stood at 0.5%.
Take `C[C@@H]1CN(C)CC[C@H]1c1cc(-c2ccncc2)c(-c2ccc(F)cc2)[nH]1.Cl.Cl` (racemic): the IC50 in experiment [1] was found to be 27 nM. Moreover, the pIC50 in experiment [1] is recorded as 7.64. In addition, the EC50 turned out to be 30 nM in experiment [3] (setting [6]), 800 nM in experiment [4] and 280 nM in experiment [5]. Besides, the inhibition in experiment [2] was 9%.
Consider `CN1CCC(c2cc(-c3ccncc3)c(-c3ccsc3)[nH]2)CC1.Cl.Cl`, for which, in experiment [1], the IC50 turned out to be 176 nM. Further, the pIC50 in experiment [1] was 6.89. In addition, the figures for the EC50 in experiment [3] (setting [6]), in experiment [4] and in experiment [5] (setting [7]) were 1020 nM, 1740 nM and 2400 nM, respectively. Besides, the inhibition in experiment [2] turned out to be 7%.
For the compound `CN1CCC(c2cc(-c3ccncc3F)c(-c3ccc(F)cc3)[nH]2)CC1.Cl.Cl`, the half-inhibitory concentration (IC50) in experiment [1] amounted to 49 nM. Further, the pIC50 in experiment [1] is on record as 7.72. Moreover, the EC50 in experiment [3] (setting [6]) came to 300 nM; in experiment [4], 5220 nM; in experiment [5] (setting [7]), 780 nM. For the same compound, the inhibition in experiment [2] worked out at 18%.
Take `CN1CCC(c2cc(-c3ccnc(C(N)=O)c3)c(-c3ccc(F)cc3)[nH]2)CC1.Cl.Cl`: in experiment [1], the IC50 came out at 1810 nM and the pIC50 is reported as 5.74. Also, the half-maximal effective concentration (EC50) in experiment [3] (setting [6]) was 3920 nM. Besides, the EC50 in experiment [4] is greater than 10000 nM. Further, the inhibition in experiment [2] is 14%.
On to `CC(=O)O.CC(O)c1c(C2CCN(C)CC2)[nH]c(-c2ccc(F)cc2)c1-c1ccncc1` (stereo not given), for which, in experiment [1], the IC50 is 1430 nM and the pIC50 is 5.84. Also, the EC50 in experiment [3] (setting [6]) was 4260 nM. In addition, the half-maximal effective concentration (EC50) in experiment [4] was found to be 3750 nM. Also, the inhibition in experiment [2] was 15%.
As to `CN1CCC(c2cc(-c3ccncc3C(N)=O)c(-c3ccc(F)cc3)[nH]2)CC1.Cl.Cl`, in experiment [1], the IC50 is 4910 nM and the pIC50 is reported as 5.31. Besides, the EC50 in experiment [3] (setting [6]) is greater than 20000 nM. For the same compound, the inhibition in experiment [2] was determined as 15%.
As for `CN1CCC(c2[nH]c(-c3ccc(F)cc3)c(-c3ccncc3)c2C(N)=O)CC1.Cl.Cl`, in experiment [1], the IC50 is 4840 nM and the pIC50 is reported as 5.31. The EC50 in experiment [3] (setting [6]) is greater than 20000 nM. Further, the inhibition in experiment [2] is 14%.
Consider `CN(C)Cc1c(C2CCN(C)CC2)[nH]c(-c2ccc(F)cc2)c1-c1ccncc1.Cl.Cl.Cl`, for which, in experiment [1], the IC50 came to 3760 nM and the pIC50 is 5.43. The inhibition in experiment [2] is 8%.

The record behind these values is ChEMBL document CHEMBL5528065, “Structure-Activity Relationship of a Pyrrole Based Series of PfPKG Inhibitors as Anti-Malarials” (J Med Chem, 2024).
